According to patent US10836732B2, “Compounds for combating arthropods” (priority 2013, dated 2020):

Legend:
Lucilia cuprina [1] = assay: Lucilia cuprina - test; type: in vivo; conditions: 100 ppm, L1 larvae, after 2 days
Description: (§1) Solvent: dimethyl sulphoxide
(§2) To produce an appropriate active ingredient formulation, 10 mg of active ingredient are mixed with 0.5 ml of dimethyl sulphoxide, and the concentrate is diluted with water to the desired concentration.
(§3) About 20 L1 larvae of the Australian sheep blowfly (Lucilia cuprina) are transferred into a test vessel containing minced horsemeat and the active ingredient preparation of the desired concentration.
(§4) After 2 days, the kill in % is determined 100% means that all the larvae have been killed; 0% means that none of the larvae have been killed.

Boophilus microplus [2] = assay: Boophilus microplus - injection test (BBOMI Inj); type: in vivo; conditions: 4 μg/animal, injected into engorged adult female cattle ticks, after 7 days
Description: as §1
(§5) To produce an appropriate active ingredient formulation, 10 mg of active ingredient are mixed with 0.5 ml of solvent and the concentrate is diluted with solvent to the desired concentration.
(§6) 1 μl of the active ingredient solution is injected into the abdomen of 5 engorged adult female cattle ticks (Boophilus microplus). The animals are transferred into dishes and kept in a climate-controlled room.
(§7) Efficacy is assessed after 7 days by laying of fertile eggs. Eggs which are not visibly fertile are stored in a climate-controlled cabinet until the larvae hatch after about 42 days. An efficacy of 100% means that none of the ticks has laid any fertile eggs; 0% means that all the eggs are fertile.

[3] = logP by HPLC on reversed-phase column (C18), EEC Directive 79/831 Annex V.A8; type: physicochemical; conditions: HPLC, reversed-phase C18, acetonitrile (0.1% formic acid)/water (0.09% formic acid) gradient
Musca domestica [4] = assay: Musca domestica test (MUSCDO); type: in vivo; conditions: 20 ppm, adult houseflies, after 2 days
Description: as §1, §2
(§8) Vessels containing a sponge treated with sugar solution and the active ingredient formulation of the desired concentration are populated with 10 adult houseflies (Musca domestica).
After 2 days, the kill in % is determined 100% means that all of the flies have been killed or knocked down; 0% means that none of the flies have been killed or knocked down.

Musca domestica [5] = assay: Musca domestica - test; type: in vivo; conditions: 100 ppm, adult houseflies, after 2 days
Description: as §1, §2, §8
After 2 days, the kill in % is determined 100% means that all of the flies have been killed; 0% means that none of the flies have been killed.

Spodoptera frugiperda = Spodoptera frugiperda - spray test; type: in vivo; conditions: 100 g/ha, maize leaf discs, after 7 days
Description: Solvent: 78.0 parts by weight of acetone
• 1.5 parts by weight of dimethylformamide Emulsifier: alkylaryl polyglycol ether
To produce an appropriate active ingredient formulation, 1 part by weight of active ingredient is dissolved using the specified parts by weight of solvent and made up with water containing an emulsifier concentration of 1000 ppm until the desired concentration is attained. To produce further test concentrations, the preparation is diluted with emulsifier-containing water.
Leaf discs of maize (Zea mays) are sprayed with an active ingredient formulation of the desired concentration and, after drying, populated with caterpillars of the armyworm (Spodoptera frugiperda).
After 7 days, efficacy in % is determined. 100% means that all the caterpillars have been killed; 0% means that no caterpillars have been killed.

[6] = system: Anopheles funestus strain FUMOZ-R; assay: Anopheles test (ANPHFU surface treatment); type: in vivo; conditions: Anopheles funestus, read-out: efficacy (mortality in %)
Description: Solvent: acetone+2000 ppm rapeseed oil methyl ester (RME)
To produce an appropriate active ingredient formulation, the active ingredient is dissolved in the solvent (2 mg/ml). The active ingredient formulation is pipetted onto a glazed tile and, after it has dried off, adult mosquitoes of the species Anopheles funestus strain FUMOZ-R (Hunt et al., Med Vet Entomol. 2005 September; 19(3):271-5) are placed onto the treated tile. The exposure time is 30 minutes.
24 hours after contact with the treated surface, mortality in % is determined 100% means that all mosquitoes have been killed; 0% means that none of the mosquitoes have been killed.

Amblyomma hebraeum = assay: Amblyomma hebaraeum - test (tick nymphs, immersion); type: in vivo; conditions: 100 ppm, tick nymphs immersed one minute, after 42 days
Description: as §1, §2
Tick nymphs (Amblyomma hebraeum) are placed into perforated plastic beakers and immersed in the desired concentration for one minute. The ticks are transferred on filter paper into a Petri dish and stored in a climate-controlled cabinet.
After 42 days, the kill in % is determined 100% means that all of the ticks have been killed; 0% means that none of the ticks have been killed.

Lucilia cuprina [7] = assay: Lucilia cuprina test (LUCICU); type: in vivo; conditions: 20 ppm, L1 larvae, after 2 days
Description: as §1, §2, §3, §4

Boophilus microplus [8] = assay: Boophilus microplus - injection test; type: in vivo; conditions: 20 μg/animal, injected into engorged adult female cattle ticks, after 7 days
Description: as §1, §5, §6, §7

[9] = system: Boophilus microplus Parkhurst strain, SP-resistant; assay: Boophilus microplus - dip test; type: in vivo; conditions: 100 ppm, adult engorged female cattle ticks, after 7 days
Description: Test animals: cattle ticks (Boophilus microplus) Parkhurst strain, SP-resistant
as §1
10 mg of active ingredient are dissolved in 0.5 ml of dimethyl sulphoxide. For the purpose of producing a suitable formulation, the active ingredient solution is diluted with water to the concentration desired in each case.
This active ingredient formulation is pipetted into tubes. 8-10 adult engorged female cattle ticks (Boophilus microplus) are transferred into a further tube with holes. The tube is immersed into the active ingredient formulation, and all the ticks are completely wetted. After the liquid has run out, the ticks are transferred on filter discs into plastic dishes and stored in a climate-controlled room.
as §7

Ctenocephalides felis = Ctenocephalides felis - in vitro contact tests with adult cat fleas; type: in vivo; conditions: 5 μg/cm^2, adult cat fleas, after 48 h
Description: For the coating of the test tubes, 9 mg of active ingredient are first dissolved in 1 ml of acetone p.a. and then diluted to the desired concentration with acetone p.a. 250 μl of the solution are distributed homogeneously on the inner walls and base of a 25 ml test tube by turning and rocking on an orbital shaker (rocking rotation at 30 rpm for 2 h). With 900 ppm active ingredient solution and internal surface area 44.7 cm^2, given homogeneous distribution, an area-based dose of 5 μg/cm^2 is achieved.
After the solvent has evaporated off, the tubes are populated with 5-10 adult cat fleas (Ctenocephalides felis), sealed with a perforated plastic lid and incubated in a horizontal position at room temperature and ambient humidity. After 48 h, efficacy is determined. To this end, the test tubes are stood upright and the fleas are knocked to the base of the tube. Fleas which remain motionless at the base or move in an uncoordinated manner are considered to be dead or moribund.
100% efficacy means that all the fleas were dead or moribund. 0% efficacy means that no fleas were harmed.

For `Cc1cc(C(F)(C(F)(F)F)C(F)(F)F)cc(C)c1-c1cn(-c2ccc(Cl)c(C(=O)NC3CC3)c2)nn1` [I-T48-1, 2-chloro-N-cyclopropyl-5-[4-[2,6-dimethyl-4-[1,2,2,2-tetrafluoro-1-(trifluoromethyl)ethyl]phenyl]triazol-1-yl]benzamide], the “efficacy (kill in %)” value (Lucilia cuprina [1]) was 100%, the “efficacy (no fertile eggs laid)” value (Boophilus microplus [2]) was 100% and the chromatographic logP [3] was 4.19. For the same compound, the “efficacy (killed or knocked down)” value (Musca domestica [4]) was 100%, the “efficacy (kill in %)” value (Musca domestica [5]) was 100% and the “efficacy (caterpillars killed)” value (Spodoptera frugiperda) was 100%. For the same compound, the mortality at 100 mg/m2 [6] was 90 to 100%, the “efficacy (kill in %)” value (Amblyomma hebraeum) was 100% and the “efficacy (kill in %)” value (Lucilia cuprina [7]) was 100%. The “efficacy (no fertile eggs laid)” value (Boophilus microplus [8]) was 100%, the “efficacy (no fertile eggs laid)” value [9] was 100% and the “efficacy (dead or moribund)” value (Ctenocephalides felis) was 100%.
